How the values were obtained:
A2780 ovarian cells [1] = experiment: A2780 Ovarian Cell Proliferation Assay in Lipid Reduced Medium, with Palmitate (control); assay type: cell-based; conditions: Homo sapiens, A2780; lipid reduced medium, 25 μM palmitate, 96 h, MTT; read-out: Proliferation A2780 with Palmitate pIC50 (converted)
How it was run: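 A2780 cells were seeded in RPMI1640 with 10% FCS, then switched next day to medium with 10% lipid-reduced serum. Compound was added with final 25 μM palmitate, 0.2% fatty-acid-free BSA and 0.2% DMSO, and incubated 96 h at 37 °C. Read-out was MTT absorbance at 544 nm; pIC50 = −log(IC50) from curve fit.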

[2] = biological target: T1, hFASN enzyme (full length) (Homo sapiens, UniProt P49327); experiment: Fatty Acid Synthase (FASN) Inhibition Scintillation Proximity Assay; assay type: biochemical; conditions: for IC50: mean where tested more than once, ~ = standard error of pIC50 larger than 0.5; for inhibition at 10 µM: read-out: FASN % Effect @1E−05M
T1 construct: 10 μL hFASN enzyme (full length, 300 ng, purified in house); made in house
T1 sequence (P49327 whole entry): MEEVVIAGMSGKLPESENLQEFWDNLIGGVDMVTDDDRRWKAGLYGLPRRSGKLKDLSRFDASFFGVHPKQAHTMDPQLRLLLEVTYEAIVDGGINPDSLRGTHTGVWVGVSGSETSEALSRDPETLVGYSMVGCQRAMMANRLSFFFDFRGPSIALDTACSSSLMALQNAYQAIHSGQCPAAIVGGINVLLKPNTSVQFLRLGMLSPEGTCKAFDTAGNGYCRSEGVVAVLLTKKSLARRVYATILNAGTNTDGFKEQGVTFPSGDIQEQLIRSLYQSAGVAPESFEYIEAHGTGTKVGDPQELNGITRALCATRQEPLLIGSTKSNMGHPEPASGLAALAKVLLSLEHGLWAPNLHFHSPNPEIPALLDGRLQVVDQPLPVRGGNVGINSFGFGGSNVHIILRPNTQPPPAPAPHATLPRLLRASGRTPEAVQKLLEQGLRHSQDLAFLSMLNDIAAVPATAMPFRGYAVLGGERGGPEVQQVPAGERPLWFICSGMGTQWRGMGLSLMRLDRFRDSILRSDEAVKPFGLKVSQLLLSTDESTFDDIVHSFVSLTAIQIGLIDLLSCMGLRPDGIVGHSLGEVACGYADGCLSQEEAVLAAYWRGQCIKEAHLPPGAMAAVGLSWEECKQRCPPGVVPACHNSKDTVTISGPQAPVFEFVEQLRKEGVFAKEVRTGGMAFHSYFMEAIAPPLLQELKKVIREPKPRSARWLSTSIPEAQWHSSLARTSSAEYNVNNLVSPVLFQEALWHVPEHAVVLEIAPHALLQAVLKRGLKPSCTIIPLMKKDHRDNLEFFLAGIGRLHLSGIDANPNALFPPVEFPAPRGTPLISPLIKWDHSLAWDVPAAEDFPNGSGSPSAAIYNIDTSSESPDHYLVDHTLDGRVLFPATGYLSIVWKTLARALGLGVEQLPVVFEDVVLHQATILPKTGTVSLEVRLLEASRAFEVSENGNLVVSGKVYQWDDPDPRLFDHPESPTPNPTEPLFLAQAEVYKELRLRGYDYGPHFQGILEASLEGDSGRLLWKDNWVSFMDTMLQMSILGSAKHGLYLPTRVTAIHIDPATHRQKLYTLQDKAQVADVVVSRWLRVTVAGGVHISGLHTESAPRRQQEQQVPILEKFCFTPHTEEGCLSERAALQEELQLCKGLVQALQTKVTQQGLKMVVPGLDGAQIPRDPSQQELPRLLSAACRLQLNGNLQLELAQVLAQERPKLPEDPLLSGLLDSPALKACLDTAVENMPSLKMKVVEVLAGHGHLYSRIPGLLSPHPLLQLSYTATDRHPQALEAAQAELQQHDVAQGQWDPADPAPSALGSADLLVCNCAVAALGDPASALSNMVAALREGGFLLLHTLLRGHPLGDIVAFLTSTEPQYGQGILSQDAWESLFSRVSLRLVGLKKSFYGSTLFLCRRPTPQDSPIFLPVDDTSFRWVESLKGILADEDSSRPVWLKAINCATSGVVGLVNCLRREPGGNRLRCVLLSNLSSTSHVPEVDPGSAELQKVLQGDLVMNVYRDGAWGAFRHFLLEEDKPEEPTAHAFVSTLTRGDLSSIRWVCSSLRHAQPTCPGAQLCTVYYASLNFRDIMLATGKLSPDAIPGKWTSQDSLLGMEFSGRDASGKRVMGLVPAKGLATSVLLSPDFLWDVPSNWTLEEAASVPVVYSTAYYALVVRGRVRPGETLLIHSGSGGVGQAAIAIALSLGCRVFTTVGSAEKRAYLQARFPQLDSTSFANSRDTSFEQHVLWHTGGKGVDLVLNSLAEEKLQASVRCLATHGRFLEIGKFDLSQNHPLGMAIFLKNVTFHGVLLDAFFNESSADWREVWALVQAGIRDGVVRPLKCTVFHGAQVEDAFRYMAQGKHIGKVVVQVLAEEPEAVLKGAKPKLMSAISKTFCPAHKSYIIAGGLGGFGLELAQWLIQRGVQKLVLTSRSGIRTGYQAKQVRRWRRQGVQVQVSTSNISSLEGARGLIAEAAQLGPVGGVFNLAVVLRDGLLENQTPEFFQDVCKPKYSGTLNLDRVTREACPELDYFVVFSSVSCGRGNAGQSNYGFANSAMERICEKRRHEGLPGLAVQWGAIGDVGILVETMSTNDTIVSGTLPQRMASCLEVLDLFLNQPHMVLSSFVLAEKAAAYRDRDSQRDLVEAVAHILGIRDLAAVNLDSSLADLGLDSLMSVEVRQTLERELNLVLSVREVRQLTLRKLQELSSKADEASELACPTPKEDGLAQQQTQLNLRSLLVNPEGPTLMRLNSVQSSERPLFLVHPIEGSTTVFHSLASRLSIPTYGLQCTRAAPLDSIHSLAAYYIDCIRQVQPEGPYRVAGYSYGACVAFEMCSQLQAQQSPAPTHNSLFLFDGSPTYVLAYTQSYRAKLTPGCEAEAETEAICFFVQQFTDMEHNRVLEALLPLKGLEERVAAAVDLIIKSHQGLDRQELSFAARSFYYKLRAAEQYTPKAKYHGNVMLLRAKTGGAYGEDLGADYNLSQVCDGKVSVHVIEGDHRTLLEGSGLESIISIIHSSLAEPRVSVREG
How it was run: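 Purified full-length human FASN (300 ng) incubated 60 min at room temperature with NADPH, [3H]-acetyl-CoA and malonyl-CoA in 100 mM KH2PO4 pH 7.5, 1 mM DTT; compound at 30 μM to 0.01 μM. [3H]-palmitate captured by SPA imaging beads; IC50 from 4-parameter fit, reported as pIC50.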

A2780 ovarian cells [3] = experiment: A2780 Ovarian Cell Proliferation Assay in Lipid Reduced Medium, without Palmitate; assay type: cell-based; conditions: Homo sapiens, A2780; lipid reduced medium, without palmitate, 96 h, MTT; read-out: Proliferation A2780 w/o Palmitate pIC50 (converted)
How it was run: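 A2780 cells were seeded in 10% FCS medium and switched next day to 10% lipid-reduced serum without palmitate. Compounds at 0.01–30 μM were added with 0.2% DMSO, 0.2% fatty-acid-free BSA and 0.25% ethanol final. After 96 h, MTT absorbance at 544 nm was normalized to plate controls, and IC50/pIC50 came from a 4-parameter logistic fit.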

[4] = biological target: T2, FASN Keto-reductase Domain (Homo sapiens, UniProt P49327); experiment: Fatty Acid Synthase Keto-Reductase Domain (FASN KR) Inhibition; assay type: biochemical; conditions: mean where tested more than once; read-out: FASN K-R Domain pIC50 (converted)
T2 construct: 10 μL hFASN enzyme (full length, 300 ng, purified in house) and 360 μM NADPH; made in house
T2 sequence (P49327 whole entry, the tested form may be a part): as the sequence (P49327 whole entry) above
How it was run: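 Full-length human FASN (300 ng) in 100 mM KH2PO4 pH 7.5 with 360 μM NADPH and 180 mM ethyl acetoacetate (stock); A340 decrease read over 20 min at room temperature.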

[5] = system: PC-3M-Luc-C6 prostate cells; experiment: In Vitro PC-3M-Luc-C6 Prostate Cell Proliferation Assay in Lipid Reduced Medium; assay type: cell-based; conditions: read-out: PC-3M-Luc-C6 Cells pIC50 (μM) (converted), lipid reduced serum, 96 h
Method: PC-3M-Luc-C6 prostate cells were obtained from Xenogen Corporation. Cells were maintained in MEM supplemented with 10% Fetal Calf Serum (FCS, Hyclone), 2 mM glutamine, 1 mM sodium pyruvate, 1% BME vitamins (available from for example, Sigma Aldrich), 0.1 mM non Essential Amino Acid and 50 μg/ml Gentamicin. The cells were passaged twice a week.
1000 PC-3M-Luc-C6 prostate cells (Xenogen) were seeded in a 384-well black with clear bottom plate (costar 3712BC) in 40 μl MEM, 10% LRS (Hyclo ne), 50 μg/ml Gentamicin, 2 mM Glutamine, 1 mM Sodium pyruvaat, 1% BME vitamins and 0.1 mM non Essential Amino Acid and incubated at 37° C., 5% CO2. The next day 10 μl test compound/DMSO diluted in medium was added (3E-5M, 1E-5M, 3E-6M, 1E-6M, 3E-7M, 1E-7M, 3E-8M, 1E-8M final concentration). Compounds were tested in duplicate. After 96 h incubation at 37° C., 5% CO2 25 μl ATP-glow mix was added. The plate was incubated for 30 min at 37° C. and luminescence was measured with the Envision.
(§1) pIC50 values were calculated as follows. Raw data generated by the instruments were normalized to % Controlmin values, which were calculated as: % Controlmin=100*(x−mLC)/(mHC−mLC),
(§2) where mLC and mHC are the means of the low control wells and high control wells on the plate, after manual exclusion of outliers. The relation between the % Controlmin values and concentration was fitted to a 4-parameter logistic curve using a non-linear least squares regression method to determine the pIC50 value. Outlying data points were excluded manually to get a correct fit. The pIC50 corresponds to −log 10(IC50), if the IC50 is expressed in molar units (http://www.ncbi.nlm.nih.gov/books/NBK91994). The IC50 parameter was always determined by non-linear regression, but one or more of the other parameters may have been held fixed on a relevant input value, such as 0 for the bottom values.
(§3) For dose response curves with FASN inhibitors in LNCaP_Vancouver or PC-3M-Luc_C6 cells the curves bottom out around 30 to 40% of the control value. A standard fit PL2, forcing the lower bound to this level was used.
(§4) Representative compounds of the present invention were tested according to the procedure as described in Biological Example 4a and 4b above, with results as listed in Table BIO-4, below.

[6] = system: LNCaP_Vancouver prostate cells; experiment: In Vitro LNCaP Vancouver Prostate Cell Proliferation Assay in Lipid Reduced Medium; assay type: cell-based; conditions: lipid reduced serum, 96 h, read-out: Vancouver Cells pIC50 (converted)
Method: LNCaP_Vancouver prostate cells were obtained from the Vancouver Prostate Cancer Centre. Cells were maintained in RPMI-1640, 10% Fetal Calf Serum (FCS, Hyclone), 2 mM glutamine and 50 μg/ml Gentamicin.
For the proliferation experiment 1500 LNCaP_Vancouver cells per well were seeded in a 384-well black with clear bottom plate (costar 3712BC) in 40 μl RPMI-1640, 10% Lipid reduced serum (LRS, Hyclone), 50 μg/ml Gentamicin and 2 mM Glutamine and incubated at 37° C., 5% CO2. The next day 10 μl of test compound/DMSO diluted in medium was added (3E-5M, 1E-5M, 3E-6M, 1E-6M, 3E-7M, 1E-7M, 3E-8M, 1E-8M final concentration). Compounds were tested in duplicate. After 96 h incubation at 37° C., 5% CO2 25 μl ATP-glow mix was added. The plate was incubated for 30 min at 37° C. and luminescence was measured with the Envision.
as §1, §2, §3, §4

SMILES | IC50 (A2780 ovarian cells [1]) [nM] | IC50 [2] [nM] | inhibition at 10 µM [2] [%] | IC50 (A2780 ovarian cells [3]) [nM] | IC50 [4] [nM] | IC50 [5] [µM] | IC50 [6] [nM]
CC(C)Nc1ccc(C(=O)Nc2cc(C(=O)N3CC(c4ccc(-c5cccnc5)cc4)C3)ccc2Cl)cn1 [Compound #73, N-(2-chloro-5-(3-(4-(pyridin-3-yl)phenyl)azetidine-1-carbonyl)phenyl)-6-(isopropylamino)nicotinamide] | 13500 | 32.4 | 93 | 148 | 85.1 |  | 
CC(C)Nc1ccc(C(=O)Nc2cc(C(=O)N3CC(c4ccc(-c5ccncc5)cc4)C3)ccc2Cl)cn1 [Compound #74, N-(2-chloro-5-(3-(4-(pyridin-4-yl)phenyl)azetidine-1-carbonyl)phenyl)-6-(isopropylamino)nicotinamide] | 2190 | 17.4 | 107 | 61.7 | 45.7 |  | 
CC(C)Nc1ccc(C(=O)Nc2cc(C(=O)N3CC(c4ccc(-c5ccc6cnccc6c5)cc4)C3)ccc2Cl)cn1 [Compound #75, N-(2-chloro-5-(3-(4-(isoquinolin-6-yl)phenyl)azetidine-1-carbonyl)phenyl)-6-(isopropylamino)nicotinamide] | > 15100 | 53.7 | 92 | 135 | 55 |  | 
COc1ccc(C(=O)Nc2cc(C(=O)N3CC(c4ccc(-c5cnn(C)c5)cc4)C3)ccc2C)cc1 [Compound #83, 4-methoxy-N-(2-methyl-5-(3-(4-(1-methyl-1H-pyrazol-4-yl)phenyl)azetidine-1-carbonyl)phenyl)benzamide] | > 10000 | 16.2 | 109 | 74.1 | 45.7 |  | 
Cc1ccc(C(=O)N2CCC(c3ccc(-c4cnn(C)c4)cc3)CC2)cc1NC(=O)C1CC1 [Compound #89, N-(2-methyl-5-(4-(4-(1-methyl-1H-pyrazol-4-yl)phenyl)piperidine-1-carbonyl)phenyl)cyclopropanecarboxamide] | > 10000 | 20.4 | 103 | 151 | 66.1 |  | 
Cc1ccc(C(=O)N2CCC(c3ccc(-c4cnn(C)c4)cc3)CC2)cc1NC(=O)c1ccc(N2CCOCC2)nc1 [Compound #91, N-(2-methyl-5-(4-(4-(1-methyl-1H-pyrazol-4-yl)phenyl)piperidine-1-carbonyl)phenyl)-6-morpholinonicotinamide] | > 10000 | 11.2 | 109 | 15.8 | 25.1 |  | 
Cc1ccc(C(=O)N2CCC(c3ccc(-c4cnn(C)c4)cc3)CC2)cc1NC(=O)c1ccc(Cl)cc1 [Compound #100, 4-chloro-N-(2-methyl-5-(4-(4-(1-methyl-1H-pyrazol-4-yl)phenyl)piperidine-1-carbonyl)phenyl)benzamide] | > 10000 | 16.2 | 111 | 93.3 | 44.7 |  | 
Cc1ccc(C(=O)N2CCC(c3ccc(-c4cnn(C)c4)cc3)CC2)cc1NC(=O)c1ccc(N2CCN(C)CC2)nc1 [Compound #112, N-(2-Methyl-5-(4-(4-(1-methyl-1H-pyrazol-4-yl)phenyl)piperidine-1-carbonyl)phenyl)-6-(4-methylpiperazin-1-yl)nicotinamide] | 2690 | 11.5 | 104 | 30.2 | 66.1 |  | 
Cc1ccc(C(=O)N2CCC(c3ccc(-c4cnn(C)c4)cc3)CC2)cc1NC(=O)C1CCN(C(C)C)CC1 [Compound #182, 1-isopropyl-N-(2-methyl-5-(4-(4-(1-methyl-1H-pyrazol-4-yl)phenyl)piperidine-1-carbonyl)phenyl)piperidine-4-carboxamide] | > 10000 | 27.5 | 111 | 45.7 | 112 |  | 
COc1ccc(C(=O)N2CCC(c3ccc(-c4cnn(C)c4)cc3)CC2)cc1NC(=O)c1ccc(NC(C)C)nc1 [Compound #251, 6-(isopropylamino)-N-(2-methoxy-5-(4-(4-(1-methyl-1H-pyrazol-4-yl)phenyl)piperidine-1-carbonyl)phenyl)nicotinamide] | 2400 | 28.8 | 112 | 41.7 | 115 |  | 
CCc1ccc(C(=O)N2CCC(c3ccc(-c4cnn(C)c4)cc3)CC2)cc1NC(=O)c1ccc(Cl)nc1 [Compound #255, 6-chloro-N-(2-ethyl-5-(4-(4-(1-methyl-1H-pyrazol-4-yl)phenyl)piperidine-1-carbonyl)phenyl)nicotinamide] | > 10000 | 24 | 113 | 39.8 | 72.4 |  | 
CCc1ccc(C(=O)N2CCC(c3ccc(-c4cnn(C)c4)cc3)CC2)cc1NC(=O)c1ccc(NC(C)C)nc1 [Compound #256, N-(2-ethyl-5-(4-(4-(1-methyl-1H-pyrazol-4-yl)phenyl)piperidine-1-carbonyl)phenyl)-6-(isopropylamino)nicotinamide] | 6310 | 25.7 | 116 | 8.91 | 60.3 |  | 
CN(C)c1ccc(C(=O)N2CCC(c3ccc(-c4cnn(C)c4)cc3)CC2)cc1NC(=O)C1CC1 [Compound #273, N-(2-(dimethylamino)-5-(4-(4-(1-methyl-1H-pyrazol-4-yl)phenyl)piperidine-1-carbonyl)phenyl)cyclopropanecarboxamide] | > 10000 |  | 98 | 182 |  | 0.269 | 2190
